The results in this text go back to ChEMBL document CHEMBL1201862, “PubChem BioAssay data set” (2004).

Test systems include NCI-H226; TK-10; NCI-H522; PC-3; 786-0; DU-145; MDA-N; ACHN; EKVX; KM12; RPMI-8226; SF-295; HT-29; UACC-62; K562; BT-549; NCI-H460; SK-MEL-2; M14; HOP-92.
Common to all, as to test: DTP human tumour cell line panel, 48 h

The structures appear in SMILES notation.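 Method: 48-hour compound exposure of cells in 96-well plates, five concentrations, linear interpolation of endpoints. GI50: concentration for 50% inhibition of growth.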 Activity calls are given as the source filed them. Cut-off read from the data, not from the text of the source: active = GI50 up to about 1.1 µM and inactive = higher.

In general, GI50 refers to the concentration giving 50% growth inhibition.

Turning to `Cc1ncc2c(=O)c3c(oc2n1)c1ccccc1n3Cc1ccccc1`, the GI50 in the test on NCI-H226 was > 100 µM (inactive); in the test on TK-10 it was > 100 µM (inactive); in the test on NCI-H522, > 100 µM (inactive); in the test on PC-3 it was > 100 µM (inactive); with 786-0, 84.9 µM (inactive); in the test with DU-145 it was > 100 µM (inactive). The GI50 in the test on MDA-N is > 100 µM (inactive); in the test with ACHN, 53.5 µM (inactive); in the test with EKVX, > 100 µM (inactive); in the test on KM12, > 100 µM (inactive); with RPMI-8226 it was > 100 µM (inactive); with SF-295, > 100 µM (inactive). The GI50 in the test with HT-29 was > 100 µM (inactive); with UACC-62, 27 µM (inactive); in the test with K562, > 100 µM (inactive); in the test with BT-549, > 100 µM (inactive); in the test on NCI-H460 it was > 100 µM (inactive).

For the molecule `Cc1cccc(-c2cc(O)c3c(C)ccnc3n2)c1`, the GI50 in the test with NCI-H226 was 0.495 µM (active); in the test with TK-10, > 53.1 µM (inactive); in the test on NCI-H522 it was 0.247 µM (active); in the test on PC-3, 0.371 µM (active); in the test on 786-0, 0.564 µM (active); in the test with DU-145, 1.05 µM (active). For the same molecule, the GI50 with MDA-N is 0.0474 µM (active); in the test on ACHN, 0.601 µM (active); in the test with EKVX, 0.935 µM (active); in the test with KM12, 0.209 µM (active); with RPMI-8226 it was 0.468 µM (active); with SF-295, 0.346 µM (active). The GI50 in the test on HT-29 is 0.339 µM (active); with UACC-62, 0.461 µM (active); in the test on K562 it was 0.139 µM (active); in the test on SK-MEL-2, 0.321 µM (active); with BT-549 it was > 100 µM (inactive); in the test on NCI-H460, 0.363 µM (active). In the test with M14, the concentration for 50% growth inhibition (GI50) was 0.291 µM (active).

With `Cc1ccc(S(=O)(=O)Nn2c(O)c(C#N)c(-c3ccc([N+](=O)[O-])cc3)c(C#N)c2=O)cc1`, the GI50 with NCI-H226, with TK-10, in the test on HOP-92, with NCI-H522, in the test with PC-3 and with 786-0 was > 100 µM (inactive) in each case. Besides, the GI50 in the test on MDA-N, with ACHN, in the test on EKVX, in the test on KM12, with SF-295 and in the test with HT-29 was > 100 µM (inactive) in each case. Further, the GI50 with UACC-62, in the test on K562, with SK-MEL-2, with BT-549, in the test with NCI-H460 and in the test on M14 was > 100 µM (inactive) throughout.

For `CC(=O)OCC1OC(c2nc3ccccc3s2)=CC(OC(C)=O)C1OC(C)=O` (stereo not drawn), the GI50 in the test with NCI-H226, in the test on TK-10, in the test with NCI-H522, in the test with PC-3, in the test on 786-0 and in the test on DU-145 was > 100 µM (inactive) throughout. Moreover, the GI50 was > 100 µM (inactive) in the test with MDA-N; > 100 µM (inactive) in the test with ACHN; > 100 µM (inactive) with EKVX; > 100 µM (inactive) with KM12; 37.3 µM (inactive) in the test with RPMI-8226; > 100 µM (inactive) in the test with SF-295. For the same molecule, the GI50 is > 100 µM (inactive) in the test on HT-29, 50.5 µM (inactive) in the test with K562, > 100 µM (inactive) with BT-549 and > 100 µM (inactive) with NCI-H460.

`CC(=O)/C(=C/N1C(=O)CC(=O)NC1=S)C(=O)Nc1ccccc1C`: the GI50 is > 100 µM (inactive) in the test on NCI-H226; > 100 µM (inactive) in the test on TK-10; > 100 µM (inactive) with HOP-92; 21.7 µM (inactive) in the test on 786-0; 97.3 µM (inactive) in the test with DU-145; 49.2 µM (inactive) with MDA-N. The GI50 in the test with ACHN was 58.9 µM (inactive); in the test on EKVX, 38.5 µM (inactive); in the test with KM12 it was 37.5 µM (inactive); in the test on SF-295, 84.3 µM (inactive); in the test with HT-29, 23.5 µM (inactive); with UACC-62, 24.3 µM (inactive). Besides, the GI50 in the test with SK-MEL-2 is > 100 µM (inactive); in the test with BT-549, > 100 µM (inactive); in the test on NCI-H460, 39.2 µM (inactive); in the test on M14, 76 µM (inactive).

Regarding `CC(C)(CC#N)c1cc(CC(C)(C)c2cc(CC(C)(C)c3cc(C(C)(C)C4(C)OCCO4)no3)no2)no1`, the GI50 is 36.4 µM (inactive) in the test with NCI-H226; 51.5 µM (inactive) in the test on TK-10; 24.6 µM (inactive) in the test with NCI-H522; 39.7 µM (inactive) with PC-3; 17 µM (inactive) with 786-0; 50.4 µM (inactive) in the test on DU-145. Further, the GI50 in the test with MDA-N was 51.1 µM (inactive); in the test with ACHN, 35.5 µM (inactive); in the test on EKVX, 33 µM (inactive); in the test with KM12, > 100 µM (inactive); in the test on RPMI-8226, > 100 µM (inactive); in the test on SF-295 it was 31 µM (inactive). Besides, the GI50 with HT-29 is > 100 µM (inactive); with UACC-62, 41.9 µM (inactive); with K562, > 100 µM (inactive); with SK-MEL-2 it was 42.7 µM (inactive); with BT-549, 52.5 µM (inactive); in the test with M14, > 100 µM (inactive).

For `CN(C)c1cc[n+](-c2nc([N-]C(=O)C(F)(F)F)nc3c2ncn3C2CC(O)C(CO)O2)cc1` (stereo not drawn), the GI50 in the test with NCI-H226, in the test with TK-10, in the test on NCI-H522, in the test on PC-3, in the test with 786-0 and in the test on DU-145 was > 100 µM (inactive) in each case. In addition, the GI50 in the test on MDA-N, with ACHN, with EKVX, with KM12, in the test on RPMI-8226 and with SF-295 was > 100 µM (inactive) throughout. The GI50 in the test on HT-29, with UACC-62, with K562, in the test on SK-MEL-2, in the test on BT-549 and with NCI-H460 was > 100 µM (inactive) in each case. Further, in the test with M14, the GI50 was > 100 µM (inactive).

As to `CCCCc1ccc(-n2sc3ncccc3c2=O)cc1`, the GI50 in the test on NCI-H226 is 7.67 µM (inactive); with TK-10 it was 14.4 µM (inactive); in the test with NCI-H522, 2.58 µM (inactive); with PC-3, 11 µM (inactive); with 786-0, 9.42 µM (inactive); in the test on DU-145, 21 µM (inactive). For the same molecule, the GI50 with MDA-N is 13.9 µM (inactive); with ACHN, 11.4 µM (inactive); in the test with EKVX it was 11.1 µM (inactive); in the test on KM12, 13.4 µM (inactive); in the test with RPMI-8226, 8.02 µM (inactive); in the test with SF-295, 12.6 µM (inactive). In addition, the GI50 was 16.1 µM (inactive) with HT-29; 12.4 µM (inactive) with UACC-62; 12.2 µM (inactive) in the test on SK-MEL-2; 19.1 µM (inactive) with BT-549; 5.26 µM (inactive) with NCI-H460; 11.2 µM (inactive) in the test on M14.

On to `CCCCc1c(N(C)C)c(OC(C)=O)c(-c2cn(C)c3ccccc23)oc1=O`, for which the GI50 in the test on NCI-H226 was 8.71 µM (inactive); in the test with TK-10, 40 µM (inactive); with HOP-92, < 0.01 µM (active); in the test with NCI-H522, 20.9 µM (inactive); in the test with PC-3, 18.6 µM (inactive); in the test on 786-0, 34.8 µM (inactive). The GI50 in the test on DU-145 is 54.6 µM (inactive); in the test on MDA-N it was 18.1 µM (inactive); in the test with ACHN, 17.9 µM (inactive); in the test with EKVX it was 26.1 µM (inactive); in the test on KM12, 14.2 µM (inactive); in the test with SF-295 it was 25.5 µM (inactive). Moreover, the GI50 in the test on HT-29 is 15.5 µM (inactive); in the test on UACC-62, 14.1 µM (inactive); in the test on SK-MEL-2, 18.7 µM (inactive); with BT-549 it was 28.3 µM (inactive); in the test on NCI-H460, 27 µM (inactive); in the test on M14, 16.8 µM (inactive).

Consider `CC1OC(O[C@H]2CC[C@]3(C)[C@H]4CC=C5[C@@H]6[C@@H](C)[C@H](C)CC[C@]6(C(=O)O)CC[C@@]5(C(=O)O)[C@]4(C)CC[C@H]3C2(C)C)C(O)C(O)C1O` (stereo partly drawn), for which the GI50 in the test on TK-10 is > 75 µM (inactive); in the test with HOP-92 it was 38.3 µM (inactive); in the test on NCI-H522, > 75 µM (inactive); with PC-3, > 75 µM (inactive); in the test on 786-0, > 75 µM (inactive); with DU-145, > 75 µM (inactive). Besides, the GI50 in the test with MDA-N, with ACHN, with KM12, in the test on SF-295, with UACC-62 and with K562 was > 75 µM (inactive) in each case. In addition, the GI50 with SK-MEL-2 was > 75 µM (inactive); in the test with BT-549 it was > 75 µM (inactive); in the test on NCI-H460 it was 50.1 µM (inactive); in the test on M14 it was > 75 µM (inactive).

On to `NS(=O)(=O)c1nnc(NC(=O)c2cccc([N+](=O)[O-])c2)s1`, for which the GI50 in the test with NCI-H226 was > 100 µM (inactive); with TK-10, > 100 µM (inactive); with HOP-92, 44.9 µM (inactive); with NCI-H522, > 100 µM (inactive); with 786-0, > 100 µM (inactive); in the test with DU-145, > 100 µM (inactive). For the same molecule, the GI50 with MDA-N, with ACHN, with EKVX, in the test on KM12, with RPMI-8226 and in the test with SF-295 was > 100 µM (inactive) in each case. Further, the GI50 with UACC-62, in the test on K562, in the test with SK-MEL-2, with BT-549, with NCI-H460 and in the test on M14 was > 100 µM (inactive) each time.
